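96-well plates; 48 h exposure; 5 concentrations. Endpoints by linear interpolation between flanking doses. Not reached: highest tested concentration assigned. Abbreviation: GI50, concentration required for 50% inhibition of growth.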 Activity calls are given as the source filed them. No stated cut-off is given here; in the data, active = GI50 up to about 1.1 µM and inactive = higher.
Columns and labels:
Experiment in all cases: inhibition of tumour cell growth, NCI panel, 48 h
DLD-1 = test system: DLD-1
DMS-273 = test system: DMS-273
LXFL 529 = test system: LXFL 529
M19-MEL = test system: M19-MEL
SNB-78 = test system: SNB-78
XF498 = test system: XF498
DMS-114 = test system: DMS-114
HOP-18 = test system: HOP-18
RXF 631 = test system: RXF 631

Compound	GI50 (DLD-1)	GI50 (DMS-273)	GI50 (LXFL 529)	GI50 (M19-MEL)	GI50 (SNB-78)	GI50 (XF498)	GI50 (DMS-114)	GI50 (HOP-18)	GI50 (RXF 631)
COC(=O)C(=O)C(C#N)c1ccc(CC#N)cc1 (stereo not given)	> 100 µM (inactive)	> 100 µM (inactive)	> 100 µM (inactive)	> 100 µM (inactive)	> 100 µM (inactive)	> 100 µM (inactive)	–	–	–
Cc1cc(N(CCC#N)S(C)(=O)=O)ccc1C=O	> 100 µM (inactive)	> 100 µM (inactive)	> 100 µM (inactive)	–	> 100 µM (inactive)	–	> 100 µM (inactive)	> 100 µM (inactive)	–
O=C[C@]12CC=C3OC4OC5(CCCCC5)OC4[C@H]3[C@H]1C(=O)C=CC2=O (stereo not given in full)	17.3 µM (inactive)	39.2 µM (inactive)	19 µM (inactive)	23.1 µM (inactive)	14.2 µM (inactive)	14.6 µM (inactive)	19.1 µM (inactive)	–	35.6 µM (inactive)
CCC1(O)C(=O)OCc2c1cc1n(c2=O)Cc2cc3ccc(C=O)cc3nc2-1 (stereo not given)	12.4 µM (inactive)	0.484 µM (active)	12.8 µM (inactive)	2.89 µM (inactive)	19.9 µM (inactive)	2.7 µM (inactive)	0.607 µM (active)	3.47 µM (inactive)	2.38 µM (inactive)
O=c1c2cc(Br)ccc2[nH]c(=S)n1-c1ccc(Br)cc1	> 100 µM (inactive)	–	> 100 µM (inactive)	> 100 µM (inactive)	> 100 µM (inactive)	–	> 100 µM (inactive)	> 100 µM (inactive)	–
COc1ccc(/C=N/N=C(\N)NO)cc1F	53.7 µM (inactive)	17.5 µM (inactive)	11.6 µM (inactive)	21.6 µM (inactive)	97.3 µM (inactive)	25.3 µM (inactive)	–	13.8 µM (inactive)	14.5 µM (inactive)
CCCC/C=C/C=C/C=C/CCCCCCCC(=O)OCC(COC(=O)CCCCCCC/C=C/C1C=CC(CCCC)C(C(=O)O)C1C(=O)O)OC(=O)CCCCCCC/C=C/C=C/C=C/CCCC.OCCNCO (stereo not given)	20 µM (inactive)	16.3 µM (inactive)	17.8 µM (inactive)	17.5 µM (inactive)	–	–	10.9 µM (inactive)	17.2 µM (inactive)	–
O=[N+]([O-])c1cccc(C2=NN(c3ccccc3)C[N+](c3ccc(Br)cc3)=N2)c1	96.8 µM (inactive)	77.4 µM (inactive)	46.8 µM (inactive)	70.8 µM (inactive)	34.4 µM (inactive)	> 100 µM (inactive)	–	43.7 µM (inactive)	–
c1ccc2c3nc(C4CCCC4)nc-3c(NC3CCCC3)[nH]c2c1	30 µM (inactive)	8.43 µM (inactive)	8.32 µM (inactive)	13.2 µM (inactive)	45.3 µM (inactive)	19.6 µM (inactive)	17.8 µM (inactive)	16 µM (inactive)	–
CC1(C)O[C@H]2OC3CCC(=O)CC3(O)[C@H]2O1 (stereo not given in full)	> 100 µM (inactive)	–	–	> 100 µM (inactive)	> 100 µM (inactive)	0.507 µM (active)	> 100 µM (inactive)	–	–
O=c1c2cc3ccccc3n2c(=O)c2cc3ccccc3n12	> 100 µM (inactive)	> 100 µM (inactive)	> 100 µM (inactive)	> 100 µM (inactive)	> 100 µM (inactive)	> 100 µM (inactive)	> 100 µM (inactive)	> 100 µM (inactive)	–
O=C(CC1=Nc2nnc(-c3nnc4n3C(=O)C(CC(=O)c3cccnc3)=N4)n2C1=O)c1cccnc1	> 100 µM (inactive)	> 100 µM (inactive)	> 100 µM (inactive)	> 100 µM (inactive)	> 100 µM (inactive)	–	> 100 µM (inactive)	–	> 100 µM (inactive)
CS(=O)(=O)N(CCC#N)c1ccc(/C=C2\N=C(c3ccccc3Cl)OC2=O)cc1	> 100 µM (inactive)	> 100 µM (inactive)	> 100 µM (inactive)	> 100 µM (inactive)	> 100 µM (inactive)	> 100 µM (inactive)	> 100 µM (inactive)	–	–
C[C@@]12CCC(=O)c3coc(c31)C(=O)c1cc3c(cc12)C(=O)C=CC3=O [HELENAQUINONE]	15.4 µM (inactive)	15.5 µM (inactive)	17.4 µM (inactive)	6.05 µM (inactive)	22 µM (inactive)	18.9 µM (inactive)	14 µM (inactive)	17.3 µM (inactive)	–
CCOC(=O)/C(=C/c1ccc(Cl)cc1)N(CC)CC	> 100 µM (inactive)	–	> 100 µM (inactive)	> 100 µM (inactive)	> 100 µM (inactive)	> 100 µM (inactive)	–	> 100 µM (inactive)	–
